{"source": "patent US12337005B2", "about": "“Methods of treating thrombosis” (UNIVERSITY OF IOWA RESEARCH FOUNDATION, priority 2020, dated 2025)", "key": {"[1]": {"tested_on": "male obese mice (fed a high-fat diet for 4 months)", "experiment": "FeCl3-injury induced carotid artery thrombosis in obese mice", "assay_type": "in vivo, mouse", "conditions": "5.0% FeCl3 injury, infused with ML265", "text": "FIGS. 16A-16D. ML265 inhibits platelet aggregation and arterial thrombosis in pre-existing comorbid condition of obesity. Wild-type (C57BL6/J) mice fed a chow and high-fat diet (Cat #TD.06414, Envigo, 60% Kcal from fat) for 4 months. (A) Blood glucose levels (B) Blood glucose levels during the insulin tolerance test. Statistics (A & B): Two-way ANOVA with Tukey's multiple comparisons test (*P<0.05, **P<0.01, ***P<0.001, ****P<0.0001; n=10 mice/group). (C) Platelet rich plasma or washed platelets from obese mice were pretreated with vehicle or ML265 and stimulated with agonists including collagen (1 μg/mL) and thrombin (0.02 U/mL). The results are represented as percent change light transmission after subtracting the blank (platelet poor plasma/Tyrode's buffer). […]\nThrombus formation in the carotid artery after the FeCl3 injury was assessed by intravital microscopy. […] Whatman paper (0.5×1.5 mm) saturated with ferric chloride (5%) solution was applied topically for 1.5 minutes for male and 2 mins for female mice, and thrombus formation in the injured carotid vessel was monitored in real time using a Nikon upright microscope (Plan Fluor 4×/0.2 objective), and thrombus growth overtime was recorded using a high-speed electron-multiplying camera for 40 minutes or until occlusion occurred. […] Videos were evaluated off-line using a Nikon computer-assisted image analysis program."}, "human whole blood": {"tested_on": "human whole blood", "experiment": "Bioflux flow chamber assay, human whole blood on collagen", "assay_type": "cell-based", "procedure": "In vitro thrombosis assays were performed using BioFlux™ 200 (Fluxion Biosciences, USA) microfluidics flow chamber (Nayak et al., 2018). The channels were coated with Type I collagen (100 μg/ml) for one hour at room temperature and then blocked with 0.5% BSA for 30 minutes. Platelets were isolated from citrated whole blood as described above, washed, labeled with the fluorescent dye (calcein AM; 2 μM) and were reconstituted back with PPP and remaining blood containing leukocytes and RBC. The whole blood pretreated with ML265 or vehicle (DMSO) was perfused over the collagen-coated plate at shear stress 1500 s^−1 for 5 minutes. Experiments were performed in triplicates using whole blood from human and mice. The fluorescently labeled platelets/thrombi on the collagen-coated surface were analyzed using ImageJ software from NIH (Bethesda, MD, USA)."}, "murine platelets": {"tested_on": "murine platelets", "experiment": "Clot retraction, mouse platelet-rich plasma", "assay_type": "cell-based", "conditions": "thrombin 0.25 U/ml, ML265 50 and 100 μM", "procedure": "To measure thrombin-stimulated fibrin clot retraction PRP was treated with ML265 (50 and 100 μM) or vehicle control (DMSO) for 10 minutes. Tyrode buffer was added to test tubes, along with red blood cells, to allow visualization of the clot. This was followed by the addition of PRP. Clot formation was initiated by adding thrombin (final concentration 0.25 U/ml) to the test tubes. Photographs were taken every 15 minutes and the assay was terminated after 60 minutes at which time the clot in the vehicle-treated samples were seen to have retracted completely. Clot area was analyzed using Image J software from NIH (Bethesda, MD, USA)."}, "integrin αIIbβ3": {"tested_on": "integrin αIIbβ3", "experiment": "Integrin αIIbβ3 activation (PAC-1 binding), human platelets", "assay_type": "cell-based", "conditions": "convulxin or TRAP-induced"}, "mouse platelets": {"tested_on": "mouse platelets", "experiment": "Annexin V-affinity assay, mouse platelets", "assay_type": "cell-based", "conditions": "increasing concentrations of ML265", "procedure": "(§1) Mouse and human washed platelets (1×10^8/ml) were pre-incubated with different concentrations of ML265 ([…]). Washed platelets activated with thrombin (0.5 U/ml)+convulxin (100 ng/ml) were used as a positive control. The samples were added to 1× Annexin V-binding buffer (BD Biosciences). Following this, annexin V-FITC antibody was added to each sample, gently mixed, and incubated at room temperature for 15 minutes in the dark. After incubation, 1× Annexin-binding buffer was added to each tube and analyzed by a Becton Dickinson FACSCalibur flow cytometer."}, "human platelets [2]": {"tested_on": "human platelets", "experiment": "Metabolomic analysis of human platelets", "assay_type": "cell-based", "procedure": "Human washed platelets (3×10^8 cells in 300 μl) were treated with ML265 (100 μM) or DMSO for 10 mins and stimulated by convulxin for 10 minutes. Cells were then fixed by adding 80% methanol and sent to Metabolon Inc. (Morrisville, NC, USA) for metabolomic analysis. Briefly, samples were homogenized and subjected to methanol extraction then split into aliquots for analysis by ultra-high-performance liquid chromatography/mass spectrometry (UHPLC/MS) in the positive (two methods) and negative (two methods) mode. Metabolites were then identified by automated comparison of ion features to a reference library of chemical standards followed by visual inspection for quality control as previously described (Dehaven et al., 2010). Metaboanalyst 4.0 feature PatternHunter was used for finding the metabolites showing correlation (≥0.5) with specific trends (Xia et al., 2009). The metabolites obtained after PatternHunter analysis have been represented as a heatmap. Furthermore, to understand the functional role of the changes in concentration of these metabolites, the pathway analysis was performed using Metaboanalyst 4.0. The Global Ancova and Relative-betweenness Centrality topological measures were used to identify the highly impacted pathways with KEGG human metabolic library as the reference. The False Discovery Rate corrected pathway terms with P≤0.05 were considered significant."}, "human platelets [3]": {"tested_on": "human platelets", "experiment": "Annexin V-affinity assay, human platelets", "assay_type": "cell-based", "procedure": "as §1"}, "human platelets [4]": {"tested_on": "human platelets", "experiment": "Glucose uptake assay, human platelets", "assay_type": "cell-based", "conditions": "human platelets stimulated with convulxin or thrombin; ML265 pre-treated (50 and 100 μM)", "procedure": "Glucose uptake was determined in activated versus non-activated platelets using 10 mM ^14C-2-deoxy-glucose. Washed platelets (2×10^8/mL) treated with vehicle (DMSO) or ML265 (50 and 100 μM) were incubated in 1× Tyrode buffer and stimulated with convulxin or thrombin for 10 minutes, placed on ice and then centrifuged at 4000 rpm for 5 minutes. The pellets were washed with cold 1×PBS and solubilized in 1N NAOH. Radioactive counts were determined using a Perkin Elmer TriCarb 2800TR liquid scintillation counter."}, "[5]": {"conditions": "ML265 100 μM, convulxin-stimulated human platelets"}}}
{"smiles": "Cn1c2cc([S+](C)[O-])sc2c2cnn(Cc3cccc(N)c3)c(=O)c21", "note": "(centres unmarked) [ML265, 6-[(3-aminophenyl)methyl]-4,6-dihydro-4-methyl-2-(methylsulfinyl)-5H-thieno[2′,3′:4,5]pyrrolo[2,3-d]pyridazine-5-one]", "values": [{"measurement": "arterial thrombosis in pre-existing comorbid condition of obesity", "setting": "[1]", "result": "inhibited"}, {"measurement": "reduction in the thrombus growth rate vs vehicle control", "setting": "human whole blood; ML265 150 μM, collagen, 1500 s-1", "result": "~5", "unit": "fold"}, {"measurement": "reduction in percent of the area covered by platelets vs vehicle control", "setting": "human whole blood; ML265 150 μM, collagen, 1500 s-1, 5 minutes", "result": "~5", "unit": "fold"}, {"measurement": "rate of thrombus growth (slope over time)", "setting": "human whole blood; ML265 150 μM, vehicle slope 237.3", "result": 37.92}, {"measurement": "thrombus formation vs vehicle control", "setting": "human whole blood; ML265 50 or 100 μM, collagen, 1500 s-1, 5 minutes", "result": "no significant difference"}, {"measurement": "clot retraction", "setting": "murine platelets", "result": "significant decrease"}, {"measurement": "activation of αIIbβ3 (PAC-1 binding)", "setting": "integrin αIIbβ3", "result": "decreased"}, {"measurement": "apoptosis in resting platelets (Annexin V binding)", "setting": "mouse platelets", "result": "does not induce"}, {"measurement": "levels of arachidonic acid and 12-HETE", "setting": "human platelets [2]; [5]", "result": "altered"}, {"measurement": "metabolites in the glycolytic pathway, including glucose uptake and lactate production", "setting": "human platelets [2]; [5]", "result": "altered"}, {"measurement": "level of free fatty acids and palmitate", "setting": "human platelets [2]; ML265 100 μM, human platelets", "result": "altered"}, {"measurement": "palmitate", "setting": "human platelets [2]; ML265 pre-treated activated human platelets compared to control", "result": "downregulated"}, {"measurement": "arachidonate level", "setting": "human platelets [2]; convulxin-stimulated human platelets pre-treated with ML265, vs convulxin alone", "result": "further decrease"}, {"measurement": "glycerophospholipid metabolism", "setting": "human platelets [2]; pre-treatment of human platelets with ML265", "result": "downregulated"}, {"measurement": "concentration not inducing phosphatidyl serine surface expression (annexin V)", "setting": "human platelets [3]", "result": "≤ 300", "unit": "µM"}, {"measurement": "apoptosis in resting platelets (Annexin V binding)", "setting": "human platelets [3]; increasing concentrations of ML265", "result": "does not induce"}, {"measurement": "glucose uptake", "setting": "human platelets [4]", "result": "significantly decreased"}]}
